Source: publication PMC6062912, “The Evolutionary Conserved γ-Core Motif Influences the Anti-Candida Activity of the Penicillium chrysogenum Antifungal Protein PAF” (Frontiers in Microbiology, 2018)
In brackets after ≈: the same amount, converted by molar mass. Several values for one entry are separate records, joined by “and”; a condition that tells them apart may be missing. Identical values can stand only once. Like-named read-outs stand apart in the source and are kept apart here. Positions of bridges follow the written chain, without caps; N, C: chain ends. Residues, ends and D or L forms follow the SMILES beside them. *: point of attachment. Acm = CC(=O)NC*

Experiments:
Type in all cases: cell-based, Candida albicans
C. albicans [1] = conditions: for MIC: 24 h; for antifungal activity of scrambled peptide analog compared with original peptide: compared with Pγ, Pγ^var and Pγ^opt, respectively, data not shown
Procedure: Fungal strains used in this study are listed in Supplementary Table S1 and composition of growth media is given in Supplementary Table S2. All P. chrysogenum shaking cultures were inoculated with 2 × 10^8 conidia, in 200 mL defined minimal medium (PcMM) for protein expression or complete medium (CM) before transformation, and grown at 25°C as described ([Sonderegger et al., 2016]). For conidial suspension generation from surface cultures, P. chrysogenum was grown on PcMM agar at 25°C. C. albicans was used as PAF-sensitive model organism and was cultivated on yeast extract peptone dextrose (YPD) agar at 37°C. For growth inhibition and susceptibility assays, C. albicans was grown in 20-fold diluted potato dextrose broth (PDB, Sigma-Aldrich) at 30°C, pH 5.5 ([Huber et al., 2018]).
The MIC of all protein and peptide variants was determined on C. albicans with broth microdilution assays in 96-well microtiter plates (Nunclon Delta, Thermo Fisher Scientific). From a fresh C. albicans overnight culture on YPD agar, cells were harvested with an inoculation loop and suspended in 0.05× PDB (Sigma-Aldrich) ([Arendrup et al., 2016]). The cell number was determined with a counting chamber (Bürker) and the cell number was adjusted to 10^4 mL^-1. In each well, 10^3 cells were incubated with increasing concentrations of antifungal proteins or peptides in a final volume of 200 μL 0.05× PDB. The plates were incubated for 24 h at 30°C before the growth was determined by measuring the optical density (OD620nm) with a multi-mode microplate reader (FLUOstar Omega, BMG Labtech). The MIC was defined as the protein concentration that inhibited growth by ≥90% compared to the untreated control, which was referred as 100% growth.

C. albicans [2] = conditions: 2 h
Procedure: Fungistatic or fungicidal activities were determined by incubating C. albicans (10^4 cells mL^-1) in 0.05× PDB with proteins and peptides at 1× MIC and 2× MIC of at 30°C under continuous shaking (800 rpm) in a Thermomixer Comfort (Eppendorf). At defined time points, aliquots were taken and appropriate dilutions were plated on YPD agar in duplicates to promote growth of viable cells. Agar plates were incubated at 37°C for 24 h to count colony forming units (cfu) ([Huber et al., 2018]).
The determination of the MIC concentration is a well-established, reliable method to elucidate the growth reducing effect of an antifungal compound. […] To gain deeper insight into the antifungal mechanism of the generated protein and peptide variants, we compared them first for their fungicidal potential. In liquid culture C. albicans was exposed to 1× MIC and 2× MIC concentrations of each protein and peptide. After certain time points aliquots were taken and appropriate dilutions were spread on agar plates to allow colony formation of viable cells. The cfu were counted and compared to the untreated control, which was set to be 100%. […] The candidacidal effects were aggravated with higher protein concentrations.

C. albicans [3] = conditions: 10 min exposure, mean ± SD, untreated control 1.8 ± 1.2%
Procedure: (§1) To analyze changes in cell size and to assess kinetics of cell death of C. albicans upon antifungal treatment flow cytometry was applied. For both experiments, 10^4 cells mL^-1 was incubated in 0.05× PDB with the desired AMP concentration for different time points. The incubation was performed in 1.5 mL reaction tubes at 30°C under continuous shaking at 800 rpm in a Thermomixer Comfort (Eppendorf). After incubation, the cells were centrifuged at 4°C with 3,000 ×g for 3 min. For cell size determination, the supernatant was removed and the cells were resuspended and fixed in PBS containing 3.7% (v/v) formaldehyde before changes in cell size were measured by plotting SSC against FSC. C. albicans that were incubated at 95°C for 120 min served as controls. Microscopic control-images were taken with a fluorescence microscope (Axioplan, Zeiss), equipped with a camera (Axiocam 503 mono, Zeiss) and excitation/emission filters (365/420 nm for blue fluorescence and 546/590 or 565/620 nm for red fluorescence, Zeiss). Image acquisition was performed with ZEN 2 microscope software (Zeiss, blue edition) and the cell area was measured with ImageJ 1.52d software ([Schindelin et al., 2012]).
For dead-cell staining, prior to fixation, the cells were incubated in the dark for 30 min at 4°C with 100 μL PBS containing 0.1 μL LIVE/DEAD^TM Fixable Far Red Dead Cell Stain (Thermo Fisher Scientific). The cells were then washed once in PBS and fixed in PBS containing 3.7% formaldehyde. Ethanol-inactivated dead C. albicans served as a positive staining control. The samples were then analyzed by FACS (FACSVerse Flow Cytometer, BD Biosciences), equipped with BD FACSuite software (v1.0.6.5230, BD Biosciences). Dead cells were detected at Excitation/Emission wavelength of 650/665 nm. Stained, live, and dead Candida cells were used as controls to discriminate populations and to set the gates.
To elucidate the AMPs candidacidal activities at an early stage and to compare their time and dose-dependent cell killing in more detail, fluorescence activated cell sorting (FACS) analysis with dead-cell staining was applied. To this end, C. albicans was exposed to 1× and 2× MIC of the respective AMPs for 10 min, stained with the dead-cell marker, and fixed with formaldehyde. With FACS analyses, 1.8 ± 1.2% dead cells were detected in the untreated control (Figure 3).

C. albicans biofilms = assay: Anti-biofilm activity, FDA fluorescence; conditions: AMP 0–40 μM for 24 h at 30°C; for concentration inhibiting cell metabolism in biofilm (FDA fluorescence): 24-h-old biofilms; for concentration with anti-biofilm (inhibitory) activity, extinction of FDA fluorescence: 1 h old (young) biofilms
Procedure: The antifungal activity against C. albicans biofilms was determined in 96-well microtiter plates (Nunclon Delta, Thermo Fisher Scientific). Cells (10^5) in 100 μL 0.05× PDB were distributed per well and plates were incubated at 37°C for up to 24 h to allow biofilm formation. After cell adherence, the microtiter plates were washed once with 0.05× PDB and the test substances were added in increasing concentrations in 100 μL 0.05× PDB per well. H2O2 served as a control for cell killing. The plates were further incubated at 30°C for 24 h. The wells were washed once with 0.05× PDB and 100 μL of FDA solution (40 μg mL^-1 in 0.05× PDB) was added to the wells. Wells containing only FDA solution (40 μg mL^-1 in 0.05× PDB) were used as blank background control. The plates were incubated for 1 h at 37°C in the dark before the fluorescence signal intensity was measured in a multi-mode microplate reader (FLUOstar Omega, BMG Labtech) with excitation and emission wavelengths of 485 and 520 nm. All experiments were prepared at least in duplicates and repeated at least twice.
Next, we analyzed the potential of the AMPs to inhibit C. albicans biofilm formation. Low susceptibility of biofilms to antifungal agents is often a limiting factor in anti-Candida treatment. To this end, C. albicans cells were distributed in 96-well microtiter plates, allowed to settle down, and to develop biofilms for 1 and 24 h. Then, planktonic cells were washed off and AMPs were added to the biofilms for another 24 h in a concentration range of 0–40 μM. The biofilms were then quantified by adding FDA to the wells. Metabolically active cells convert non-fluorescent FDA into highly fluorescent fluorescein by intracellular enzymatic activity ([Peeters et al., 2008]). The resulting fluorescence signal intensity from AMP-treated biofilms was measured and compared to untreated conditions. […] Twenty-four-hour-old biofilms, however, were resistant against PAF, PAF^var, and PAF^opt in the investigated concentration range (data not shown).

C. albicans [4] = assay: Cell size reduction (FSC) by flow cytometry; conditions: 1× MIC and 2× MIC, 10 and 30 min
Procedure: as §1
Cell shrinkage of C. albicans is a sign for cell death when exposed to AMPs ([Lee et al., 2017]). We therefore analyzed the changes in size of AMP-treated C. albicans cells by recording the FSC with flow cytometry. To this end, C. albicans cells were analyzed after 10 and 30 min of exposure to 1× MIC and 2× MIC of AMPs (Figure 5). Heat-killed and untreated C. albicans cells served as positive and negative controls, respectively (Supplementary Figure S8). […] Pγ^var and Pγ^opt caused a very prominent decrease in the FSC value compared to the untreated cell population when applied at 2× MIC. Pγ^var and Pγ^opt reduced the average cell size after a 10-min treatment by 28 ± 13 (P = 0.022) and 18 ± 10% (P = 0.041), respectively, and after 30 min the cell size was reduced by 48 ± 8 (P < 0.001) and 37 ± 12% (P = 0.007), respectively.

[5] = 1× MIC, 0.05× PDB, 30°C, mean ± SD

Compound: CC(=O)N[C@@H](CCCCN)C(=O)N[C@@H](Cc1ccc(O)cc1)C(=O)N[C@H](C(=O)NCC(=O)N[C@@H](CCCCN)C(=O)N[C@@H](CS)C(=O)N[C@H](C(=O)N[C@@H](CCCCN)C(=O)N[C@@H](CO)C(=O)N[C@@H](CCCCN)C(=O)N[C@@H](CC(N)=O)C(=O)N[C@@H](CCC(=O)O)C(=O)N[C@@H](CS)C(=O)N[C@@H](CCCCN)C(N)=O)[C@@H](C)O)[C@@H](C)O [Pγ] (Ac-KYTGKCTKSKNECK-NH2)
- MIC (C. albicans [1]): 10.0 µM (≈ 16.6 µg/mL)
- Candida cells killed (cfu vs untreated control) (C. albicans [2]; [5]): no killing effects
- Candida cells killed (cfu vs untreated control) (C. albicans [2]; 2): 31 ± 23%
- dead cells (cells killed), FACS dead-cell staining (C. albicans [3]; 1× MIC): No significant cell-killing
- dead cells (cells killed), FACS dead-cell staining (C. albicans [3]; 2× MIC): No significant cell-killing
- concentration inhibiting cell metabolism in biofilm (FDA fluorescence) (C. albicans biofilms): no impact
- concentration with anti-biofilm (inhibitory) activity, extinction of FDA fluorescence (C. albicans biofilms): 40 µM
- cell shrinkage (C. albicans [4]): did not result in cell shrinkage

Compound: CC(=O)N[C@@H](CCCCN)C(=O)N[C@@H](Cc1ccc(O)cc1)C(=O)N[C@H](C(=O)NCC(=O)N[C@@H](CCCCN)C(=O)N[C@H]1CSSC[C@@H](C(=O)N[C@@H](CCCCN)C(N)=O)NC(=O)[C@H](CCC(=O)O)NC(=O)[C@H](CC(N)=O)NC(=O)[C@H](CCCCN)NC(=O)[C@H](CO)NC(=O)[C@H](CCCCN)NC(=O)[C@H]([C@@H](C)O)NC1=O)[C@@H](C)O [Pγ_ox] (Ac-KYTGKCTKSKNECK-NH2; disulfide 6-13)
- MIC (C. albicans [1]): 40 µM (≈ 66.3 µg/mL)

Compound: CC(=O)NCSC[C@H](NC(=O)[C@H](CCC(=O)O)NC(=O)[C@H](CC(N)=O)NC(=O)[C@H](CCCCN)NC(=O)[C@H](CO)NC(=O)[C@H](CCCCN)NC(=O)[C@@H](NC(=O)[C@H](CSCNC(C)=O)NC(=O)[C@H](CCCCN)NC(=O)CNC(=O)[C@@H](NC(=O)[C@H](Cc1ccc(O)cc1)NC(=O)[C@H](CCCCN)NC(C)=O)[C@@H](C)O)[C@@H](C)O)C(=O)N[C@@H](CCCCN)C(N)=O [Pγ_prot] (Ac-KYTGKC(Acm)TKSKNEC(Acm)K-NH2)
- MIC (C. albicans [1]): 40 µM (≈ 72 µg/mL)

Compound: CTNKYSCKKGETKK [Pγ_scr, scrambled peptide analog of Pγ]
- antifungal activity of scrambled peptide analog compared with original peptide (C. albicans [1]): same antifungal activity

Compound: Penicillium chrysogenum antifungal protein [PAF]
- MIC (C. albicans [1]; 10^3 cells per well in 200 μL 0.05× PDB, 30°C, OD620nm, MIC = concentration inhibiting growth by ≥90% vs untreated control): 5 µM and 5.0 µM
- Candida cells killed (cfu vs untreated control) (C. albicans [2]; [5]): no detectable killing activity
- Candida cells killed (cfu vs untreated control) (C. albicans [2]; 2× MIC, 0.05× PDB, 30°C, mean ± SD): 26 ± 6%
- dead cells (cells killed), FACS dead-cell staining (C. albicans [3]; 1× MIC): did not cause significant increase
- dead cells (cells killed), FACS dead-cell staining (C. albicans [3]; 2× MIC): did not cause significant increase
- concentration inhibiting cell metabolism in biofilm (FDA fluorescence) (C. albicans biofilms): resistant
- concentration with anti-biofilm (inhibitory) activity, extinction of FDA fluorescence (C. albicans biofilms): only moderately reduced the metabolic activity
- cell shrinkage (C. albicans [4]): did not result in cell shrinkage

Compound: TCKKNKKKKYGKTC [Pγ^opt_scr, scrambled peptide analog of Pγ^opt]
- antifungal activity of scrambled peptide analog compared with original peptide (C. albicans [1]): same antifungal activity

Compound: TNGKKYKKKEYCCK [Pγ^var_scr, scrambled peptide analog of Pγ^var]
- antifungal activity of scrambled peptide analog compared with original peptide (C. albicans [1]): same antifungal activity
